{"source": "patent US20230293535A1", "about": "“ERBB/BTK INHIBITORS” (Dizal (Jiangsu) Pharmaceutical Co., Ltd., priority 2018, published 2023)", "key": {"OCI-LY-10 cells": {"tested_on": "OCI-LY-10 cells", "assay": "BTK (wt) cell proliferation, OCI-LY-10 (CellTiter-Glo, 72 h);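 further: viable cells quantified via cellular ATP luminescence, proliferation given as percent of DMSO control after subtracting a duplicate plate read at time of dosing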", "format": "cell-based", "details": "Homo sapiens, OCI-Ly10, 72 h, read-out: BTK WT OCI-LY-10 GI50"}, "EGFR L858R&T790M": {"biological_target": "T1, EGFR L858R&T790M (Homo sapiens, UniProt P00533, L858R/T790M)", "T1 construct": "host or cells: NCI-H1975", "T1 sequence (P00533 25-1210 T790M/L858R)": "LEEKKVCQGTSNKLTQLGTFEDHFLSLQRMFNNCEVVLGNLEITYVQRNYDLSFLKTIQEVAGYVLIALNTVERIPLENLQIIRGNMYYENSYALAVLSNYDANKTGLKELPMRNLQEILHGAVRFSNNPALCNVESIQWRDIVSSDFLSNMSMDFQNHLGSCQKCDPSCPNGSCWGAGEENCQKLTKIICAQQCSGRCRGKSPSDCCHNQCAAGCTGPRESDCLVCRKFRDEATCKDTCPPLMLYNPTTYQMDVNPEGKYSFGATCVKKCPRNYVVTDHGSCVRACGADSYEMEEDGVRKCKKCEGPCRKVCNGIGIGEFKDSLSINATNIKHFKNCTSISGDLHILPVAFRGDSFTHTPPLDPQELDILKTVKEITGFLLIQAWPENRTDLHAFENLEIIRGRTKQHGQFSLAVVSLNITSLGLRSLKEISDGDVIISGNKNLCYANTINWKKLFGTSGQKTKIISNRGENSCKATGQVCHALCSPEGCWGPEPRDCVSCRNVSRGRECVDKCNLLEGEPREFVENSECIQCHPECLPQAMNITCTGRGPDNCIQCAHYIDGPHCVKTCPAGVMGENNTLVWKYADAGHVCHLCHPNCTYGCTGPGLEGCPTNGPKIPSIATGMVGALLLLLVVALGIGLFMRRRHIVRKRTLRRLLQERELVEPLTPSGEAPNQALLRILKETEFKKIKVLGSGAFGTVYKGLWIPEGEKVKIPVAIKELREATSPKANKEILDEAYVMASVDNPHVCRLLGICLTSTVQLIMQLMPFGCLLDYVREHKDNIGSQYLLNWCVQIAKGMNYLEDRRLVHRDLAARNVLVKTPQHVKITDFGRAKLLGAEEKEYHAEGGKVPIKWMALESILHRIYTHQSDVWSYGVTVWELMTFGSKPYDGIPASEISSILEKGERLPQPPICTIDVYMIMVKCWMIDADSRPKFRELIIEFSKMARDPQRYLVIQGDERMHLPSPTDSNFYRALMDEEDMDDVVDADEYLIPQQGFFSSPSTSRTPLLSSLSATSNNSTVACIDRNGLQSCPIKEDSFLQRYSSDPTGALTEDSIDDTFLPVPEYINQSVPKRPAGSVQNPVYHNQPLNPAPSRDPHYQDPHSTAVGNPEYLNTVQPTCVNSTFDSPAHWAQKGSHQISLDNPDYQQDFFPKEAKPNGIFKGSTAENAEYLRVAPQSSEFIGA", "assay": "EGFR L858R and T790M cellular phosphorylation inhibition in NCI-H1975 (MSD);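 further: phosphorylated and total EGFR detected by electrochemiluminescence, cells exposed to compound in medium containing 1% FBS at 37 °C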", "format": "cell-based", "details": "NCI-H1975 cells, 4 h compound, p-EGFR(Y1068)/total EGFR; read-out: EGFR L858R and T790M mutation IC50"}, "[1]": {"biological_target": "T2, human EGFR exon 20 V769_D770insASV (Homo sapiens, UniProt P00533, INS769ASV)", "T2 construct": "expressed in transfected cells; host or cells: Ba/F3 (DSMZ ACC-300), lentiviral transduction, puromycin selection, IL3 depletion", "T2 sequence (P00533 with tags, fused parts or gaps INS769ASV)": "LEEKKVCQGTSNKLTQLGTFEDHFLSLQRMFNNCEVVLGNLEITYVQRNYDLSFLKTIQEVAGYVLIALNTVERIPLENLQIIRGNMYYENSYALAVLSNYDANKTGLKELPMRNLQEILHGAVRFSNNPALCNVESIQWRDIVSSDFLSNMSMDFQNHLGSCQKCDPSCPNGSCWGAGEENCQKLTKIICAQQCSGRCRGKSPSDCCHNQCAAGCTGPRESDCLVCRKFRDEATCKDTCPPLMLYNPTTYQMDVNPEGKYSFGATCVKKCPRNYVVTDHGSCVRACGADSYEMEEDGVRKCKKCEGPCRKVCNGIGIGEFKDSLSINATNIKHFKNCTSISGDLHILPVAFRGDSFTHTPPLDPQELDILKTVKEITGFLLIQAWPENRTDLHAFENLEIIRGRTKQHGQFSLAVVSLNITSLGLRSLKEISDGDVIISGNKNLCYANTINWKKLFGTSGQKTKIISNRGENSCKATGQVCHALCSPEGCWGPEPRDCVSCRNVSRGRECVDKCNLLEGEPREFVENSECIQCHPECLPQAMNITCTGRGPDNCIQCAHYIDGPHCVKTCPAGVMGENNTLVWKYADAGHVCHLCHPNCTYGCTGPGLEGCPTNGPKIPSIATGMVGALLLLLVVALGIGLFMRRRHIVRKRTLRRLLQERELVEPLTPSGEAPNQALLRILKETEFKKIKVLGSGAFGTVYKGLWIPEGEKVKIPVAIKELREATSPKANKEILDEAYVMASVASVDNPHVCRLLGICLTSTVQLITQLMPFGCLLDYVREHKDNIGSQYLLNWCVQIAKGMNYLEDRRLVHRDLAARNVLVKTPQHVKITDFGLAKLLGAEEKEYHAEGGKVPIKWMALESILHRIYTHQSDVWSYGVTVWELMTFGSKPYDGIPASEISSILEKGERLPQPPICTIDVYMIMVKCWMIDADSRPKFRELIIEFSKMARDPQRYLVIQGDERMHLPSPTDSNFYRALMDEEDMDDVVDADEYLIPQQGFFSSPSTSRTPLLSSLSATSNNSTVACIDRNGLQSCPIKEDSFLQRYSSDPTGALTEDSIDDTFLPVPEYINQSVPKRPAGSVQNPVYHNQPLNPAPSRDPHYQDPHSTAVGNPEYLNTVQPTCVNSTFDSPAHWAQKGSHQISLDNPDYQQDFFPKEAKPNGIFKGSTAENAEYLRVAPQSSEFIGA", "assay": "EGFR Exon20 ASV insertion cellular phosphorylation inhibition (MSD pEGFR Y1068/total EGFR);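 further: electrochemiluminescent readout on an MSD SECTOR Imager, IL3-independent transduced cells in medium with 1% FBS, compound concentration series at 37 °C and 5% CO2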", "format": "cell-based", "details": "Ba/F3 EGFR ASV ins cells, 4 h compound, p-EGFR(Y1068)/total EGFR", "method": "To generate the EGFR exon 20 V769_D770insASV transduced Ba/F3 cell line, the parental Ba/F3 cells were infected with the recombinant EGFR V769_D770insASV lentivirus and then followed by 1 µg/ml of puromycin selection and IL3 depletion. The resulting cell line expresses constitutively phosphorylated EGFR protein and proliferates in the absence of IL3, which could be used for in vitro PD and anti-proliferation assays.\nOne day before the test, WT or mutant cells were seeded in 96 well plates at appropriate concentrations with corresponding growth media supplemented with 1% FBS, and incubated overnight. The next day, tested compounds at a series of concentrations were added into each individual well of the plates, and the plates were incubated for 4 h at 37° C. with 5% CO2.\nThe EGFR (Y1068) phosphorylation level (activity) of cells in each well were then measured with MSD kit named “MULTI-SPOT®96 4-Spot HB Prototype EGFR Triplex [sequence]: pEGFR(Tyr1068),pEGFR(Tyr1173), Total EGFR” according to the manufacturer’s instruction (MESO SCALE DISCOVERY, Cat# N45ZB-1). The assay is an electrochemiluminescent method for determining both phosphorylated and total EGFR of cells with an MSD SECTOR® Imager and the ratio of p-EGFR/total EGFR can be generated by the machine. The Her2 (Y1248) phosphorylation level (activity) of cells in each well were measured with MSD Kit named “Phospho-ErbB2 (Tyr1248) Assay Whole Cell Lysate Kit” according to the manufacturer’s instruction (MESO SCALE DISCOVERY, Cat# K151CLD-3). The assay is an electrochemiluminescent method (MESO SCALE DISCOVERY) for determining both phosphorylated and total Her2 of cells with an MSD SECTOR® Imager and then the ratio of p-Her2/total Her2 can be generated by the machine."}, "[2]": {"tested_on": "Her2 exon 20 insertion YVMA transduced NIH-3T3 cell line", "assay": "Cell proliferation, Her2 YVMAins NIH-3T3 (CellTiter-Glo, 72 h);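 further: viable cells quantified by ATP luminescence, growth over a day-zero baseline plate expressed as percent of DMSO control growth, compound dilution series in 10% FBS medium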", "format": "cell-based", "details": "Mus musculus, NIH3T3, 72 h, read-out: Her2 Exon 20 YVMA insertion GI50 (nM)"}, "Ba/F3 EGFR ASV ins cells": {"tested_on": "Ba/F3 EGFR ASV ins cells", "assay": "Cell proliferation, Ba/F3 EGFR ASV ins (CellTiter-Glo, 72 h);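 further: IL3-independent Ba/F3 cells transduced with EGFR V769_D770insASV, cellular ATP luminescence after compound exposure, growth relative to DMSO control with the day-0 baseline reading subtracted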", "format": "cell-based", "details": "Ba/F3 EGFR, 72 h, read-out: EGFR Exon20 ASV insertion GI50 (nM)"}, "[3]": {"tested_on": "NCI-H1975 EGFR L858R/T790M cells", "assay": "Cell proliferation, NCI-H1975 EGFR L858R/T790M (CellTiter-Glo, 72 h);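 further: viable cells quantified by luciferase-based ATP luminescence, proliferation expressed relative to DMSO-treated wells (100%) after subtracting a parallel plate read at the time of dosing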", "format": "cell-based", "details": "Homo sapiens, NCI-H1975, 72 h, read-out: EGFR L858R and T790M mutation GI50 (nM)"}, "in vitro [4]": {"assay": "in vitro", "details": "both, human, hepatocytes, human hepatocytes Clint (µL/min/10^6cells)", "method": "The protocol for rat/human hepatocytes metabolic stability assay is employed to determine the clearance of the compounds of the present disclosure in vitro.\nRat hepatocytes in male gender and human hepatocytes in mixed gender were obtained from commercial vendors (e.g., BioreclamationIVT) and stored at -150° C. prior to use. 10 mM stock solutions of tested compounds were prepared in DMSO. Thawing medium and supplement incubation medium (serum-free) were placed in a 37° C. water bath for at least 15 minutes prior to use. Stock solutions were diluted to 100 µM by combining 198 µL acetonitrile and 2 µL of 10 mM stock solution.\nVials of cryopreserved hepatocytes were removed from storage, ensured that vials remain at cryogenic temperatures. The vials were thawed in a 37° C. water bath with gently shaking. Vials were kept in water bath until all ice crystals had dissolved and were no longer visible. Vials were sprayed with 70% ethanol before being transferred to a biosafety cabinet. And then the contents were poured into the 50 mL thawing medium conical tube. Vials were centrifuged at 100 g for 10 minutes at room temperature.\nCell viability and density were counted using a Trypan Blue exclusion, and then cells were diluted with serum-free incubation medium to a working cell density of 1 × 10^6 viable cells/ml. […] The inactivated hepatocytes were used to prepare negative samples, which were used to exclude the misleading factor that resulted from instability of chemical itself.\nAliquots of 247.5 µL hepatocytes were dispensed into each well of a 96-well non-coated plate. The plate was placed in the incubator on an orbital shaker for approximately 10 minutes. Aliquots of 2.5 µL of the 100 µM test compounds were added into respective wells of the non-coated 96-well plate to start the reaction. This assay was performed in duplicate. The plate was incubated in the incubator on an orbital shaker for the designed time points. […] Samples were centrifuges for 20 minutes at 4000 g and aliquots of 100 µL of the supernatants were used for LC-MS/MS analysis for measurement of test compounds\nIn vitro hepatocyte clearance was estimated based on determination of elimination half-life (T½) of compounds disappearance from their initial concentrations. Peak area ratios of each compound (test or control) to IS was calculated. Ln (%Control) versus Incubation Time (min) curve was plotted, and the slope of a linear fitting line was calculated."}, "WT EGFR": {"biological_target": "T3, WT EGFR (Homo sapiens, UniProt P00533)", "T3 construct": "host or cells: A-431", "assay": "WT EGFR cellular phosphorylation inhibition in A-431 (hEGF stimulated, MSD);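 further: electrochemiluminescence read-out of EGFR Tyr1068 phosphorylation expressed as ratio to total EGFR, cells kept in medium with 1% FBS, compounds tested as a concentration series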", "format": "cell-based", "details": "A431 cells, 4 h compound, then 100 ng/ml hEGF 10 min"}, "Ri-1 cells": {"tested_on": "Ri-1 cells", "assay": "BTK (wt) cell proliferation, Ri-1 (CellTiter-Glo, 72 h);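 further: viable cells quantified as cellular ATP luminescence, proliferation normalized to a time-zero plate and the DMSO control, compounds tested across a dilution series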", "format": "cell-based", "details": "Ri-1, 72 h, read-out: BTK WT Ri-1 GI50"}, "Ba/F3 EGFR NPH ins cells": {"tested_on": "Ba/F3 EGFR NPH ins cells", "assay": "Cell proliferation, Ba/F3 EGFR NPH ins (CellTiter-Glo, 72 h);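 further: IL3-independent cells carrying constitutively phosphorylated EGFR, compound dilution series, viable cells quantified by ATP luminescence, growth relative to DMSO wells after subtracting pre-dosing (day 0) baseline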", "format": "cell-based", "details": "Ba/F3 EGFR, 72 h, read-out: EGFR Exon20 NPH insertion GI50 (nM)", "method": "Similar to recombinant human EGFR exon 20 H769_V770insASV Ba/F3 cell line, the recombinant human EGFR exon 20 H773_V774insNPH Ba/F3 cell line also expresses constitutively phosphorylated EGFR protein and proliferates in the absence of IL3, which could be used for in vitro PD and anti-proliferation assays.\nWT or mutant cells were seeded in 384 well plates at appropriate concentrations with corresponding growth media supplemented with 10% FBS, for each experiment, identical plates were prepared in duplicates, and the plates were incubated overnight. On the next day, one of each duplicated plates was dosed with tested compounds at a series of concentrations, and another one of the duplicated plate was analysied for G0 value. The dosed plates were incubate for another 72 h at 37° C. with 5% CO2 and the number of viable cells in each well of the G0 plates or the dosed plates were measured by CellTiter-Glo® Luminescent Cell Viability Assay (Promega). This assay is a luminescent method for determining the number viable cells through measurement of cellular ATP concentration by detection of luciferase activity. Detection reagents (15 µl) was dispensed into per well, and the plates were incubate for 30 min at room temperature. Then, the luminescence in each well was measured using the Envision plate reader (PerkinElmer). The percentage of proliferation was calculated based on the formula: %Proliferation= 100 × (G3 value of sample well-Go value)/(G3 value of DMSO control-Go value)."}, "[5]": {"biological_target": "T4, human Her2 exon 20 insertion mutation YVMA (Homo sapiens, UniProt P04626, INS775YVMA)", "T4 construct": "expressed in transfected cells; host or cells: NIH-3T3, lentiviral transduction, puromycin selection", "T4 sequence (P04626 with tags, fused parts or gaps INS775YVMA)": "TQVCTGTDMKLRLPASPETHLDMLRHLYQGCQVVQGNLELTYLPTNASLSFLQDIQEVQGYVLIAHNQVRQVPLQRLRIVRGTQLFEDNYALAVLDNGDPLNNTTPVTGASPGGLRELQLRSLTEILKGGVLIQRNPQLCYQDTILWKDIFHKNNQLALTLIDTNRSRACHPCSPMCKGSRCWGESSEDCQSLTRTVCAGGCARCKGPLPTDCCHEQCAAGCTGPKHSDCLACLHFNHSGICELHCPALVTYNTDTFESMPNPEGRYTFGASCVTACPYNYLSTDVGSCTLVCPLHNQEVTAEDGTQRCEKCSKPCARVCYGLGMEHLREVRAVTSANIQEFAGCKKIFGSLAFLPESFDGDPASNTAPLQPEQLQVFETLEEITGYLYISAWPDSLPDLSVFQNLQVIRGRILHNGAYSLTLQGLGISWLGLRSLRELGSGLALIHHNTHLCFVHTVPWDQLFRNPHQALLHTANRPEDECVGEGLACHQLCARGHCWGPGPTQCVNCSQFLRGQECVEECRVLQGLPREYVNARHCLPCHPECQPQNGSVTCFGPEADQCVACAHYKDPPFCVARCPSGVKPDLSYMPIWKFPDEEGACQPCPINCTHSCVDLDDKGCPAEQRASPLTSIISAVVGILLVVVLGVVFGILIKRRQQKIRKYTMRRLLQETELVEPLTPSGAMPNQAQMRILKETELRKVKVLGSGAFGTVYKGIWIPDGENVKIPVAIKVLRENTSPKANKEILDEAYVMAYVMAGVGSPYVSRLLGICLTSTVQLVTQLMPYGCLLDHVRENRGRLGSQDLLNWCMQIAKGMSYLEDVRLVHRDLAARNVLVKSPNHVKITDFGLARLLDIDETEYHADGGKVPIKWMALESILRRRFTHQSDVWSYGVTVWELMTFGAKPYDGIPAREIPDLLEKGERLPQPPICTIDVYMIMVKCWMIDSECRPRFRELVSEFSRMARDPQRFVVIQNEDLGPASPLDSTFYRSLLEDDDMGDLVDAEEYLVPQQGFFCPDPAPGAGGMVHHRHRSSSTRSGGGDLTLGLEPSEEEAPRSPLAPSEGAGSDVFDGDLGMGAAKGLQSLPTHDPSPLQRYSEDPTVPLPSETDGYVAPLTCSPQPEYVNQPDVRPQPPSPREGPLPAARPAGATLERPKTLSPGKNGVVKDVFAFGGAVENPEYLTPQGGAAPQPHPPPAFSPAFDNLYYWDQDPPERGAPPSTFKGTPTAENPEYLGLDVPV", "assay": "Her2 Exon 20 YVMA insertion cellular phosphorylation inhibition (MSD p-Her2 Y1248/total Her2);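 further: lentivirally transduced NIH-3T3 cells in 1% FBS medium, electrochemiluminescent MSD read-out, graded compound concentrations at 37 °C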", "format": "cell-based", "details": "Her2 YVMAins cells, 4 h compound"}, "in vitro [6]": {"assay": "in vitro", "details": "male, rat, hepatocytes, rat hepatocytes Clint (µL/min/10^6cells)"}, "[7]": {"biological_target": "T5, human EGFR exon 20 H773_V774insNPH (Homo sapiens, UniProt P00533, INS773NPH)", "T5 construct": "host or cells: Ba/F3", "T5 sequence (P00533 with tags, fused parts or gaps INS773NPH)": "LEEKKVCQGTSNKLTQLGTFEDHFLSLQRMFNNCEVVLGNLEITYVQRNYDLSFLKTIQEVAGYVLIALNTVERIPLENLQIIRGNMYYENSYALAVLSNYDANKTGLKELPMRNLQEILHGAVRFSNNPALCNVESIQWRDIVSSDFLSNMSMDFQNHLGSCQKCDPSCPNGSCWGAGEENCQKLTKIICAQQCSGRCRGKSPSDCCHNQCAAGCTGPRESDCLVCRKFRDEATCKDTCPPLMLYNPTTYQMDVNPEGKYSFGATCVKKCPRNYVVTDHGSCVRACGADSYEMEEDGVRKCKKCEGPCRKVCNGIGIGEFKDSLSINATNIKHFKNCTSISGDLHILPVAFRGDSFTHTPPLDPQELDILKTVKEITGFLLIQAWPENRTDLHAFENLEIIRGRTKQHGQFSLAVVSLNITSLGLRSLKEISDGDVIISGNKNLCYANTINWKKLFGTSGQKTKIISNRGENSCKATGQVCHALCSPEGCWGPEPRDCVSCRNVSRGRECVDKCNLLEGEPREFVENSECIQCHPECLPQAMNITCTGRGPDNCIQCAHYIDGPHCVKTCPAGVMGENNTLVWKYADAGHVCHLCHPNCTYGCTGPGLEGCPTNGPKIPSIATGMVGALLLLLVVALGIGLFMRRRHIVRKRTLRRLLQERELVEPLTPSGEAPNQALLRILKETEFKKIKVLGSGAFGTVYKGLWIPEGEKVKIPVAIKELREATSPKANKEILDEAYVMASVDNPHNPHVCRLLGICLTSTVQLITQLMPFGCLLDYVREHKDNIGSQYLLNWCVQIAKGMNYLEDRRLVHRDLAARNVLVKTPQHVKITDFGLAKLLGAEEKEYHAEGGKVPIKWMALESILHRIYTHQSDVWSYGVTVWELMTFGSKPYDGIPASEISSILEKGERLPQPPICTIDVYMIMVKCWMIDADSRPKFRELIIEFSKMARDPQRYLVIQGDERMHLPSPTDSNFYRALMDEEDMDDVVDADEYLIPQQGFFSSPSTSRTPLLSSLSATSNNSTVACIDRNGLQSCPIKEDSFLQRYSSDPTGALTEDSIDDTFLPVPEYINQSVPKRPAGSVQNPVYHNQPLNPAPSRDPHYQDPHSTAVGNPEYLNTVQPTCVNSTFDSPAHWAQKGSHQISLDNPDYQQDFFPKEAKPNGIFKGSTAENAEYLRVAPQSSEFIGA", "assay": "EGFR Exon20 NPH insertion cellular phosphorylation inhibition (MSD pEGFR Y1068/total EGFR);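 further: IL3-independent Ba/F3 cells with constitutively phosphorylated EGFR, compound exposure at 37 °C under 5% CO2, electrochemiluminescent MSD measurement of the p-EGFR to total EGFR ratio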", "format": "cell-based", "details": "Ba/F3 EGFR NPH ins cells, 4 h compound, p-EGFR(Y1068)/total EGFR"}, "WT EGFR cell line A-431": {"tested_on": "WT EGFR cell line A-431", "assay": "Cell proliferation, WT EGFR A431 (CellTiter-Glo, 72 h);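 further: proliferation from a luminescent ATP viability signal, expressed as 100 × (treated minus time-zero plate) over (DMSO control minus time-zero plate), cells grown with 10% FBS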", "format": "cell-based", "details": "Homo sapiens, A-431, 72 h, read-out: EGFR WT A431 GI50 (nM)"}, "TMD-8 cells": {"tested_on": "TMD-8 cells", "assay": "BTK (wt) cell proliferation, TMD-8 (CellTiter-Glo, 72 h);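 further: viable cells quantified by ATP-based luminescence, proliferation expressed as percent of DMSO control after subtracting a time-zero baseline plate read at dosing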", "format": "cell-based", "details": "Homo sapiens, TMD8, 72 h, read-out: BTK WT TMD-8 GI50"}, "DB cells": {"tested_on": "DB cells", "assay": "BTK (wt) cell proliferation, DB (CellTiter-Glo, 72 h);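 further: DB cells in 384-well plates given a dilution series of compound, viable cells read by ATP luminescence, growth expressed versus DMSO control after subtracting a time-zero plate reading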", "format": "cell-based", "details": "Homo sapiens, DB, read-out: Non-BCR activated DB GI50"}}, "data": [{"smiles": "C=CC(=O)Nc1cc(Nc2ncnc(Nc3cc(Cl)c(F)cc3C(C)(O)CC)n2)c(OC)cc1N1CC[C@@H](N(C)C)C1", "note": "(stereo partly drawn) [Compound 59, N-(5-(4-(5-chloro-4-fluoro-2-(2-hydroxybutan-2-yl)phenylamino)-1,3,5-triazin-2-ylamino)-2-((R)-3-(dimethylamino)pyrrolidin-1-yl)-4-methoxyphenyl) acrylamide]", "values": [{"measurement": "GI50", "setting": "OCI-LY-10 cells", "value": 17.1, "unit": "nM"}, {"measurement": "IC50", "setting": "EGFR L858R&T790M", "value": 0.5, "unit": "nM"}, {"measurement": "IC50", "setting": "[1]", "value": 13.3, "unit": "nM"}, {"measurement": "GI50", "setting": "[2]", "value": 62.2, "unit": "nM"}, {"measurement": "GI50", "setting": "Ba/F3 EGFR ASV ins cells", "value": 29.8, "unit": "nM"}, {"measurement": "GI50", "setting": "[3]", "value": 2, "unit": "nM"}, {"measurement": "hepatocyte CLint at 1 µM", "setting": "in vitro [4]", "value": 3.75, "unit": "µL/min/1e6 cells"}, {"measurement": "IC50", "setting": "WT EGFR", "value": 25.7, "unit": "nM"}, {"measurement": "GI50", "setting": "Ri-1 cells", "value": 26.9, "unit": "nM"}, {"measurement": "GI50", "setting": "Ba/F3 EGFR NPH ins cells", "value": 29.1, "unit": "nM"}, {"measurement": "IC50", "setting": "[5]", "value": 3.5, "unit": "nM"}, {"measurement": "hepatocyte CLint at 1 µM", "setting": "in vitro [6]", "value": 14.1, "unit": "µL/min/1e6 cells"}, {"measurement": "IC50", "setting": "[7]", "value": 16.4, "unit": "nM"}, {"measurement": "GI50", "setting": "WT EGFR cell line A-431", "value": 10.7, "unit": "nM"}, {"measurement": "GI50", "setting": "TMD-8 cells", "value": 4.78, "unit": "nM"}, {"measurement": "GI50", "setting": "DB cells", "value": "> 3000", "unit": "nM"}]}]}
